We go through 25 compounds from patent US4820834A, “Benzodiazepine analogs” (priority 1987, dated 1989).

Where two headings read alike, the source gives them in different places.

Test [1] addresses T1, Gastrin receptor (gastric glands) (Cavia porcellus, UniProt H0VZC5).
T1 construct: The washed guinea pig gastric glands prepared as above were resuspended; from tissue; host or cells: guinea pig gastric mucosal glands (male Hartley)
T1 sequence (H0VZC5 1-426): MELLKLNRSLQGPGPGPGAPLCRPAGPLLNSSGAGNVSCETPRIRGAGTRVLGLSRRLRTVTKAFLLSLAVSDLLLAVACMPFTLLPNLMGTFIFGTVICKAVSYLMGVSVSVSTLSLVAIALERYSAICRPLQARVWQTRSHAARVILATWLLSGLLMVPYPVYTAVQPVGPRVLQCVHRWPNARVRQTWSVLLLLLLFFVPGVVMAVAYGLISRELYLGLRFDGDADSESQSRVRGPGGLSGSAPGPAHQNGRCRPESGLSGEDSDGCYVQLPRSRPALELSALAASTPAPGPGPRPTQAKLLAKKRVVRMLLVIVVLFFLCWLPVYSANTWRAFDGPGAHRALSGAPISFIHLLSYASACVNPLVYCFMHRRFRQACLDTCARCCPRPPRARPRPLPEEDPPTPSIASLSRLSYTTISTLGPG
Kind of test: Gastrin Receptor Binding in Guinea Pig Gastric Glands. Also noted: species or system guinea pig (male Hartley). Conditions: 25° C., 30 minutes.

Test [2] deals with T2, CCK receptor (brain, cerebral cortex) (Cavia porcellus, UniProt H0VZC5).
T2 construct: Cerebral cortex was dissected and used as a receptor source; from tissue; host or cells: guinea pig cerebral cortex membranes (male Hartley)
T2 sequence (H0VZC5 1-426): T1 sequence (H0VZC5 1-426)
The test is described as follows: biochemical. Type of test: binding, Male Hartley guinea pigs. The following applies: guinea pig cerebral cortex, ^125 I-CCK-33, 25° C., 2 hours. The protocol: 2. CCK Recepto Binding (Brain)
CCK-33 was radiolabeled and the binding was Performed according to the description for the Pancreas method with modifications according to Saito et al., J. Neurochem.
Cerebral cortex was dissected and used as a receptor source. Each gram of fresh guinea pig brain tissue was homogenized in 10 ml of Tris/Trizma buffer with a Brinkman polytron PT-10. The homogenates were centrifuged at 42,000 g for 15 minutes. Pellets were resuspended in Tris Buffer, centrifuged as above and resuspended in 200 volumes of binding assay buffer (10 mM N-2-hydroxyethyl-piperazine-N'-2-ethane sulfonic acid (HEPES), 5 mM MgCl2, 0.25 mg/ml bacitracin, 1 mM ethylene glycol-bis-(β-aminoethylether-N,N'-tetraacetic acid) (EGTA), and 0.4% bovine serum albumin (BSA)). […] All assays were run in duplicate or triplicate. The reaction mixtures were incubated at 25° C. for 2 hours and centrifuged in a Beckman Microfuge (4 minutes) immediately after adding 1 ml of ice-cold incubation buffer. The supernatant was aspirated and discarded, pellets were counted with a Beckman gamma 5000.

Setting [3] is: ^125 I-gastrin, read-out: IC50 ^125 I-Gastrin Gastric Glands.
Where [4] appears, read: IC50 ^125 I-Gastrin Gastric Glands.
Where [5] appears, read: read-out: IC50 ^125 I-CCK Brain.

Take `CN1C(=O)C(NC(=O)c2ccc(Cl)cc2)N=C(c2ccccc2F)c2ccccc21` (racemic) [Example 80, 1,3-Dihydro-1-methyl-3(RS)-(4-chlorophenylcarbonyl)-amino-5-(2-fluoroohenyl)-2H-1,4-benzodiazeoin-2-one]: the IC50 (commonly the concentration that inhibits the measured activity by half) in test [1] (setting [3]) came out at 2.9 µM; in test [2] (IC50 ^125 I-CCK Brain) it was 3.4 µM.

As for `CN1C(=O)[C@H](N)N=C(c2ccccc2)c2ccccc21` [Example 85b, 3(R)-(+)-3-amino-1,3-dihydro-1-methyl-5-phenyl-2H-1,4-benzodiazepin-2-one], the IC50 in test [1] (setting [4]) and in test [2] (IC50 ^125 I-CCK Brain) was more than 100 µM each time.

On to `CN1C(=O)[C@H](NC(=O)c2ccccc2Br)N=C(c2ccccc2F)c2ccccc21` [Example 171, 3(R)-(+)-3-(2-Bromobenzoylamino)-1,3-dihydro-5-(2-fluorophenyl)-1-methyl-2H-1,4-benzodiazepin-2-one], for which the results for the IC50 in test [1] (setting [3]) and in test [2] (IC50 ^125 I-CCK Brain) were 5.8 µM and 5.6 µM, respectively.

In the case of `CSc1ccc(C(=O)NC2N=C(c3ccccc3)c3ccccc3NC2=O)cc1` (racemic) [Example 143, 1,3-Dihydro-5-Phenyl-3-(RS)-(4'-methylthiobenzoylamino)-2H-1,4-benzodiazepin-2-one], the IC50 in test [1] (setting [4]) was found to be 8 µM; in test [2] (IC50 ^125 I-CCK Brain), 23 µM.

For `O=C(NCC1CNc2ccccc2C(c2ccccc2F)=N1)OCc1ccccc1` (racemic) [Example 98, 1,3-Dihydro-3(RS)-(benzyloxycarbonyl)aminomethyl-5-(2-fluorophenyl)-2H-1,4-benzodiazepine], the values for the concentration for half-maximal inhibition (IC50) in test [1] (setting [4]) and in test [2] (IC50 ^125 I-CCK Brain) were 86 µM and 100 µM, respectively.

As to `O=C(NCC1CNc2ccccc2C(c2ccccc2F)=N1)c1ccsc1` (racemic) [Example 99, 1,3-Dihydro-3(RS)-[3'-(thiophene)carbonyl]amino-methyl-5-(2-fluorophenyl)-2H-1,4-benzodiazepine], the values for the IC50 in test [1] (setting [4]) and in test [2] (IC50 ^125 I-CCK Brain) were 80 µM and 74 µM, respectively.

For `O=C(NC1N=C(c2ccccc2)c2ccccc2NC1=O)c1cccc(Cl)c1` (racemic) [Example 140, 3-(RS)-(m-Chlorobenzoylamino)-1,3-dihydro-5-phenyl-2H-1,4-benzodiazepin-2-one], the IC50 in test [1] (setting [4]) amounted to 4.3 µM; in test [2] (IC50 ^125 I-CCK Brain) it was 75 µM.

Regarding `O=C(O)CN1C(=O)C(NC(=O)c2cc3ccccc3[nH]2)N=C(c2ccccc2)c2ccccc21` (racemic) [Example 78, 1-Carboxymethyl-1,3-dihydro-3(RS)-(2-indolearbonyl-amino)-5-phenyl-2H-1,4-benzodiazepin-2-one], the IC50 in test [1] (setting [4]) amounted to 0.65 µM; in test [2] (IC50 ^125 I-CCK Brain) it was 5.5 µM.

On to `O=C(NC1N=C(c2ccccc2F)c2ccccc2NC1=O)c1cc2cc(F)ccc2[nH]1` (racemic) [Example 114, 1,3-Dihydro-3-(RS)-(5-fluoroindole-2-carbonylamino)-5-(2-fluorophenyl)-2H-1,4-benzodiazepin-2-one], for which the IC50 in test [1] (setting [4]) is 4.8 µM; in test [2] (IC50 ^125 I-CCK Brain), 12 µM.

For the compound `Cc1ccc(C(=O)NC2N=C(c3ccccc3F)c3ccccc3NC2=O)cc1` (racemic) [Example 135, 1,3-Dihydro-5-(2-fluorophenyl)-3-(RS)-(p-methylbenzoylamino)-2H-1,4-benzodiazepin-2-one], the IC50 in test [1] (setting [4]) is 5 µM; in test [2] (IC50 ^125 I-CCK Brain), more than 40 µM.

Take `O=C(Cc1cccc2sccc12)NC1N=C(c2ccccc2F)c2ccccc2NC1=O` (racemic) [Example 110, 1,3-Dihydro-3-(RS)-(4-thianaPhtheneacetyl)amino-5-(2-fluorophenyl)-2H-1,4-benzodiazepin-2-one]: the figures for the half-maximal inhibitory concentration (IC50) in test [1] (setting [4]) and in test [2] (IC50 ^125 I-CCK Brain) were 3.9 µM and 3.3 µM, respectively.

Consider `CCCc1ccc(C(=O)NC2N=C(c3ccccc3)c3ccccc3NC2=O)cc1` (racemic) [Example 163, 1,3-Dihydro-5-phenyl-3(RS)-(4-α-propylbenzoylamino)-2H-1,4-benzodiazepin-2-one], for which the IC50 is 80 µM in test [1] (setting [4]) and 12 µM in test [2] (IC50 ^125 I-CCK Brain).

For the compound `O=C(NC1N=C(c2ccccc2F)c2ccccc2NC1=O)c1ccccc1Cl` (racemic) [Example 174, 1,3-Dihydro-5-(2-fluorophenyl)-3(RS)-(2-chlorophenyl)carbonylamino-2H-1,4-benzodiazepin-2-one], the IC50 was 18 µM in test [1] (setting [4]) and more than 40 µM in test [2] (IC50 ^125 I-CCK Brain).

As for `CN1C(=O)C(NC(=O)c2ccccc2Cl)N=C(c2ccccc2)c2ccccc21` (racemic) [Example 139, 3-(RS)-(o-Chlorobenzoylamino)-1,3-dihydro-1-methyl-5-phenyl-2H-1,4-benzodiazepin-2-one], the IC50 in test [1] (setting [3]) is 30 µM; in test [2] (IC50 ^125 I-CCK Brain) it was more than 100 µM.

Regarding `COc1ccc(C(=O)NC2N=C(c3ccccc3F)c3ccccc3NC2=O)cc1` (racemic) [Example 136, 1,3-Dihydro-5-(2-fluorophenyl)-3-(RS)-(p-methoxybenzoylamino)-2H-1,4-benzodiazepin-2-one], the IC50 is 5.4 µM in test [1] (setting [4]) and more than 40 µM in test [2] (IC50 ^125 I-CCK Brain).

As to `COc1ccc(C(=O)NC2N=C(c3ccccc3F)c3ccccc3NC2=O)cc1OC` (racemic) [Example 153, 1,3-Dihydro-3(RS)-(3,4-dimethoxybenzoylamino)-5-(2-fluorophenyl)-2H-1,4-benzodiazepin-2-one], the IC50 in test [1] (setting [4]) and in test [2] (IC50 ^125 I-CCK Brain) was more than 40 µM in each case.

Consider `CN1C(=O)[C@H](NC(=O)C2CCCCC2)N=C(c2ccccc2)c2ccccc21` [Example 198, (R)-N-(2,3-Dihydro-1-methyl-2-oxo-5-phenyl-1H-1,4-benzodiazepin-3-yl)-cyclohexanecarboxamide], for which the results for the IC50 in test [1] (setting [3]) and in test [2] (setting [5]) were 1.5 µM and 18 µM, respectively.

For the compound `CN1C(=O)C(N(C)C(=O)c2ccccc2Cl)N=C(c2ccccc2)c2ccccc21` (racemic) [Example 138, 3-(RS)-(N-(o-Chlorobenzoyl)-N-methylamino)-1,3-dihydro-1-methyl-5-phenyl-2H-1,4-benzodiazepin-2-one], the IC50 in test [1] (setting [4]) was more than 100 µM; in test [2] (IC50 ^125 I-CCK Brain), 100 µM.

Turning to `CCN(CC)C(=O)C(C)N1C(=O)C(NC(=O)Nc2ccc(Cl)cc2)N=C(c2ccccc2)c2ccccc21` (single isomer, unassigned) [Example 249, 3-((((4-Chlorophenyl)amino)carbonyl)amino)-N,N,-diethyl-2,3-dihydro-alpha-methyl-2-oxo-5-phenyl-1H-1,4-benzodiazepine-1-acetamide], the IC50 in test [1] (setting [3]) turned out to be 0.012 µM; in test [2] (setting [5]), 0.022 µM.

`O=C(NC1N=C(c2ccccc2F)c2ccccc2NC1=O)c1cc2cc(O)ccc2[nH]1` (racemic) [Example 122, 1,3-Dihydro-3-(RS)-(5-hydroxy-2-indolylcarbonyl)amino-5-(2-fluorophenyl)-2H-1,4-benzodiazepin-2-one]: the IC50 stood at 29 µM in test [1] (setting [4]) and 16 µM in test [2] (IC50 ^125 I-CCK Brain).

In the case of `O=C(Cc1c[nH]c2ccccc12)NC1N=C(c2ccccc2)c2ccccc2NC1=O` (racemic) [Example 76, 3(RS)-(3-indoleacetylamino)-1,3-dihydro-5-phenyl-2H-1,4-benzodiazepin-2-one], the IC50 in test [1] (setting [4]) came to 32 µM; in test [2] (IC50 ^125 I-CCK Brain), 11 µM.

As to `CN1C(=O)[C@@H](NC(=O)c2cccc(I)c2)N=C(c2ccccc2F)c2ccccc21` [Example 167, 3(S)-(+)-1,3-Dihydro-5-(2-fluorophenyl)-3-(3-iodobenzoylamino)-1-methyl-2H-1,4-benzodiazepin-2-one], the IC50 in test [1] (setting [3]) worked out at 0.39 µM; in test [2] (setting [5]) it was 1.7 µM.

Take `O=C(NCC1N=C(c2ccccc2F)c2ccccc2NC1=O)c1cc2ccccc2[nH]1` (racemic) [Example 68, 1,3-dihydro-5-(2-fluorophenyl)-3(RS)-(2-indolecarbonylaminomethyl)-2H-1,4-benzodiazepin-2-one]: the half-maximal inhibitory concentration (IC50) was more than 100 µM in test [1] (setting [4]) and 30 µM in test [2] (IC50 ^125 I-CCK Brain).

Consider `O=C(CCc1c[nH]c2ccccc12)NC1N=C(c2ccccc2)c2ccccc2NC1=O` (racemic) [Example 75, 3(RS)-[3-(3-indolyl)propionylamino]-1,3-dihydro-5-phenyl-2H-1,4-benzodiazepin-2-one], for which the values for the IC50 in test [1] (setting [4]) and in test [2] (IC50 ^125 I-CCK Brain) were 4.7 µM and 100 µM, respectively.

As to `CN1C(=O)C(NC(=O)c2ccc(Cl)cc2)[N+]([O-])=C(c2ccccc2F)c2ccccc21` (racemic) [Example 142, 3-(RS)-(p-Chlorobenzoylamino)-1,3-dihydro-5-(2'-fluorophenyl)-1-methyl-4-oxo-2H-1,4-benzodiazepin-2-one], the IC50 is 2.4 µM in test [1] (setting [4]) and 18 µM in test [2] (IC50 ^125 I-CCK Brain).
